# Literature values as cited in patent publication US20240335498A1, “COMPOSITION AND METHODS OF TREATMENT USING TRANSDERMAL SUPPLEMENTATION” (Xygenyx Inc., priority 2023, published 2024).
# Square brackets hold non-standard residues; d marks the D form. Peptide text beside a SMILES is read from it. Cit = NC(=O)NCCC[C@H](N)C(=O)O
# How the values were obtained:
# [1] = test system: wide dynamic range neurons in the ventroposterolateral nucleus of the thalamus
# [2] = compared to α-tocopherol = 1.0
# [3] = dietary supplementation, doses up to 400 IU/day
# F2-isoprostane = details: large doses of 1600-3200 IU/day
# [4] = in vivo
# [5] = topical application, concentrations 0.5-5%
# [6] = even when dietary intake occurs in equal portions
# [7] = penetration enhancer used alone
# [8] = topical formulations, within four weeks of treatment
compound,measurement,setting,value
"CCCCCc1cc(O)c2c(c1)OC(C)(C)C1CCC(C)=CC21 (stereo not drawn) [THC, Δ-9-tetrahydrocannabinol]",power in mediating pain relative to morphine,[1],ten times more powerful
Cc1c(C)c2c(c(C)c1O)CC[C@@](C)(CCC[C@H](C)CCC[C@H](C)CCCC(C)C)O2 [α-tocopherol],relative biological activity,[2],1.0
same,reduction of the risk of coronary disease,[3],up to 34%
same,reduction of the risk of developing neurodegenerative diseases such as Alzheimer's Syndrome or dementia,[3]; controlled trials,≤ 24%
same,blood plasma concentration of F2-isoprostane,F2-isoprostane,significantly lower
HGH: hormone comprising a peptide chain that is synthesized in the pituitary gland,biological half-life,[4],10-20 minutes
"C=CCCCCCCCCC(=O)N[C@@H](Cc1ccccc1)C(=O)O [UP, Undecylenoyl phenylalanine]",time to skin lightening effects,[5],≥ 7 days
"C/C(=C\CO)CCC[C@H](C)CCC[C@H](C)CCCC(C)C [phytol, Phytol]",solubility in water,,nearly insoluble
Cc1c(O)cc2c(c1C)O[C@](C)(CCC[C@H](C)CCC[C@H](C)CCCC(C)C)CC2 [γ-tocopherol],relative biological activity,[2],0.1
same,concentration in vivo relative to α-tocopherol,[6],roughly 10%
"CC12CCC(CC1)C(C)(C)O2 [eucalyptol, Eucalyptol]",increase of transdermal drug uptake (factor),[7],more than 10
"CC[C@H](C)[C@H](NC(=O)[C@H](CC(=O)O)NC(=O)[C@@H](N)CCCCN)C(=O)N[C@@H](CCCNC(N)=O)C(N)=O [tripeptide-10 citrulline, Tripeptide-10 citrulline] (H-KDI[Cit]-NH2)",improvement of suppleness,[8],≤ 54%
Cc1cc(O)c(C)c2c1O[C@](C)(CCC[C@H](C)CCC[C@H](C)CCCC(C)C)CC2 [β-tocopherol],relative biological activity,[2],0.5
Cc1cc(O)cc2c1O[C@](C)(CCC[C@H](C)CCC[C@H](C)CCCC(C)C)CC2 [δ-tocopherol],relative biological activity,[2],0.03
CC(C)[C@@H]1CC[C@@H](C)C[C@H]1O [Menthol],increase of transdermal drug uptake (factor),[7],≥ 10
